Measurements published in patent publication US12215101B2, “Pro drugs of PDE10 compounds” (Merck Sharp & Dohme LLC, priority 2021, dated 2025).
Converted amounts (≈) assume the structure as drawn.

What was measured:
[1] = Aqueous solubility (slurry in pH 7 buffer, UPLC); assay type: physicochemical; conditions: pH 7.0 phosphate buffer, amorphous material; for solubility: aqueous buffer, thermodynamic from solid, read-out: Aqu. Solubility
Protocol: Aqueous solubility of the compounds was measured by suspending, sonicating (30 minutes), and slurrying (2 hours, 1000 rpm) excess solid (typically 5-10 mg) in phosphate buffered saline at pH 7, or equivalent pH 7 buffer. The suspension was then sonicated again for 30 minutes and stirred again at 1000 rpm for at least 6-24 hours. Approximately 400 μL of sample was removed and placed into spin filters. Each sample was spun at 14K rpm for 10 minutes using a 0.45 μm PVDF spin filter. A portion of the filtrate was removed and diluted with 1:1 ACN:H2O. The resultant samples were analyzed using UPLC analysis. Retains of the solids were checked by XRPD to determine if the material was crystalline or amorphous. Solubility of Compound A was measured at 140 μg/mL at pH 7.4 in PBS buffer solution.

[2] = Plasma stability in frozen monkey plasma; assay type: in vitro ADME; conditions: 37° C., 10% CO2, read-out: T1/2 Monkey Plasma (converted)
Protocol: (§1) Plasma stability of the compounds 1-19 (1 μM) was evaluated in frozen monkey and human plasma at 37° C. in a 10% CO2 environment. The stability of the analyte was assessed by determining the percentage of drug loss over the course of 0, 0.25, 0.5, 1, and 3 hr. In addition, the appearance of Compound A was determined for the same time course. Percent of drug loss as based on ratio with internal standard. Analyte concentrations were measured by LC/MS/MS. Linear regression was performed with log transformed percent of average TO values and linear time values. The elimination rate constant (ke) was calculated from the slope of this regression line and the half-life (T1/2) calculated based on the elimination rate constant.

[3] = Plasma stability in frozen human plasma; assay type: in vitro ADME; conditions: 37° C., 10% CO2, read-out: T1/2 Human Plasma (converted)
Protocol: as §1

solubility [1] [µg/mL]	half-life at 1 μM [2] [min]	half-life at 1 μM [3] [min]	Aqu. Solubility [1]	SMILES
0.12 (≈ 0.203 µM)	67.2	198	–	COc1cccc(C(=O)OCOC(=O)N(Cc2nnc(C)s2)c2cc(OC[C@H]3C[C@@H]3c3ccc(C)cn3)nc(C)n2)c1 [Compound 15, ({(2-Methyl-6-{[(1S,2S)-2-(5-methylpyridin-2-yl)cyclopropyl]methoxy}pyrimidin-4-yl)[(5-methyl-1,3,4-thiadiazol-2-yl)methyl]carbamoyl}oxy)methyl 3-methoxybenzoate]
0.16 (≈ 0.304 µM)	7.2	7.8	–	Cc1ccc([C@H]2C[C@@H]2COc2cc(N(Cc3nnc(C)s3)C(=O)OCOC(=O)C(C)C)nc(C)n2)nc1 [Compound 17]
0.02 (≈ 0.0339 µM)	54	126	–	COc1ccccc1C(=O)OCOC(=O)N(Cc1nnc(C)s1)c1cc(OC[C@H]2C[C@@H]2c2ccc(C)cn2)nc(C)n1 [Compound 14, ({(2-Methyl-6-{[(1S,2S)-2-(5-methylpyridin-2-yl)cyclopropyl]methoxy}pyrimidin-4-yl)[(5-methyl-1,3,4-thiadiazol-2-yl)methyl]carbamoyl}oxy)methyl 2-methoxybenzoate]
0.16 (≈ 0.271 µM)	100	227	–	COc1ccc(C(=O)OCOC(=O)N(Cc2nnc(C)s2)c2cc(OC[C@H]3C[C@@H]3c3ccc(C)cn3)nc(C)n2)cc1 [Compound 16, ({(2-Methyl-6-{[(1S,2S)-2-(5-methylpyridin-2-yl)cyclopropyl]methoxy}pyrimidin-4-yl)[(5-methyl-1,3,4-thiadiazol-2-yl)methyl]carbamoyl}oxy)methyl 4-methoxybenzoate]
0.07 (≈ 0.124 µM)	16.8	21	–	Cc1ccc([C@H]2C[C@@H]2COc2cc(N(Cc3nnc(C)s3)C(=O)OCOC(=O)C3CCCCC3)nc(C)n2)nc1 [Compound 18, ({(2-Methyl-6-{[(1S,2S)-2-(5-methylpyridin-2-yl)cyclopropyl]methoxy}pyrimidin-4-yl)[(5-methyl-1,3,4-thiadiazol-2-yl)methyl]carbamoyl}oxy)methyl cyclohexanecarboxylate]
0.03 (≈ 0.0541 µM)	35.4	148	–	CCC(CC)C(=O)OCOC(=O)N(Cc1nnc(C)s1)c1cc(OC[C@H]2C[C@@H]2c2ccc(C)cn2)nc(C)n1 [Compound 19, ({(2-Methyl-6-{[(1S,2S)-2-(5-methylpyridin-2-yl)cyclopropyl]methoxy}pyrimidin-4-yl)[(5-methyl-1,3,4-thiadiazol-2-yl)methyl]carbamoyl}oxy)methyl 2-ethylbutanoate]

Second part, the compound before the results:

SMILES	solubility [1] [µg/mL]	half-life at 1 μM [2] [min]	half-life at 1 μM [3] [min]	Aqu. Solubility [1]
Cc1ccc([C@H]2C[C@@H]2COc2cc(N(Cc3nnc(C)s3)C(=O)OCOC(=O)c3ccc(F)cc3)nc(C)n2)nc1 [Compound 11, ({(2-Methyl-6-{[(1S,2S)-2-(5-methylpyridin-2-yl)cyclopropyl]methoxy}pyrimidin-4-yl)[(5-methyl-1,3,4-thiadiazol-2-yl)methyl]carbamoyl}oxy)methyl 4-fluorobenzoate]	0.07 (≈ 0.121 µM)	43.2	64.8	–
CCC(=O)OCOC(=O)N(Cc1nnc(C)s1)c1cc(OC[C@H]2C[C@@H]2c2ccc(C)cn2)nc(C)n1 [Compound 7, ({(2-Methvl-6-{[(1S,2S)-2-(5-methylpyridin-2-yl)cyclopropyl]methoxy}pyrimidin-4-yl)[(5-methyl-1,3,4-thiadiazol-2-yl)methyl|carbamoyl}oxy)methyl propanoate]	15 (≈ 29.3 µM)	5.4	4.8	–
Cc1ccc([C@H]2C[C@@H]2COc2cc(N(Cc3nnc(C)s3)C(=O)OCOC(=O)c3ccncc3)nc(C)n2)nc1 [Compound 8, ({(2-Methyl-6-{[(1S,2S)-2-(5-methylpyridin-2-yl)cyclopropyl]methoxy}pyrimidin-4-yl)[(5-methyl-1,3,4-thiadiazol-2-yl)methyl]carbamoyl}oxy)methyl pyridine-4-carboxylate]	0.139 (≈ 0.247 µM)	9.6	11.4	–
Cc1ccc([C@H]2C[C@@H]2COc2cc(N(Cc3nnc(C)s3)C(=O)OCOC(=O)c3ccccn3)nc(C)n2)nc1 [Compound 9, ({(2-Methyl-6-{[(1S,2S)-2-(5-methylpyridin-2-yl)cyclopropyl]methoxy}pyrimidin-4-yl)[(5-methyl-1,3.4-thiadiazol-2-yl)methyl]carbamoyl}oxy)methyl pyridine-2-carboxylate]	0.058 (≈ 0.103 µM)	6	7.2	–
Cc1ccc([C@H]2C[C@@H]2COc2cc(N(Cc3nnc(C)s3)C(=O)OCOC(=O)c3ccccc3F)nc(C)n2)nc1 [Compound 13, ({(2-Methyl-6-{[(1S,2S)-2-(5-methylpyridin-2-yl)cyclopropyl]methoxy}pyrimidin-4-yl)[(5-methyl-1,3,4-thiadiazol-2-yl)methyl]carbamoyl}oxy)methyl 2-fluorobenzoate]	0.08 (≈ 0.138 µM)	16.8	27	–
CCCCCOC(=O)N(Cc1nnc(C)s1)c1cc(OC[C@H]2C[C@@H]2c2ccc(C)cn2)nc(C)n1 [Compound 4, Pentyl ((5-methyl-1,3,4-thiadiazol-2-yl)methyl)(2-methyl-6-(((1S,2S)-2-(5-methylpyridin-2-yl)cyclopropyl)methoxy)pyrimidin-4-yl)carbamate]	0.008 (≈ 0.0161 µM)	104	412	–
Cc1ccc([C@H]2C[C@@H]2COc2cc(N(Cc3nnc(C)s3)C(=O)c3ccccc3)nc(C)n2)nc1 [Compound 3, N-((5-Methyl-1,3,4-thiadiazol-2-yl)methyl)-N-(2-methyl-6-(((1S,2S)-2-(5-methylpyridin-2-yl)cyclopropyl)methoxy)pyrimidin-4-yl)benzamide]	19 (≈ 39 µM)	69	182	–
Cc1ccc([C@H]2C[C@@H]2COc2cc(N(Cc3nnc(C)s3)C(=O)OCOC(=O)c3cccnc3)nc(C)n2)nc1 [Compound 10, ({(2-Methyl-6-{[(1S,2S)-2-(5-methylpyridin-2-ylcyclopropyl]methoxy}pyrimidin-4-yl)|(5-methyl-1,3,4-thiadiadol-2-yl)methyl]carbamoyl}oxy)methyl pyridine-3-carboxylate]	0.05 (≈ 0.089 µM)	30.6	55.8	–
Cc1ccc([C@H]2C[C@@H]2COc2cc(N(Cc3nnc(C)s3)C(=O)OCOC(=O)c3ccccc3)nc(C)n2)nc1 [Compound 5, ((((5-Methyl-1,3,4-thiadiazol-2-yl)methyl)(2-methyl-6-(((1S,2S)-2-(5-methylpyridin-2-yl)cyclopropyl)methoxy)pyrimidin-4-yl)carbamoyl)oxy)methyl benzoate]	0.02 (≈ 0.0357 µM)	78.6	104	–
CCCCCC(=O)OCOC(=O)N(Cc1nnc(C)s1)c1cc(OC[C@H]2C[C@@H]2c2ccc(C)cn2)nc(C)n1 [Compound 6, ({(2-Methyl-6-{[(1S,2S)-2-(5-methylpyridin-2-yl)cyclopropyl]methoxylpyrimidin-4-yl)[(5-methyl-1,3,4-thiadiazol-2-yl)methyl]carbamoyl}oxy)methyl hexanoate]	0.02 (≈ 0.0361 µM)	14.4	21	–
Cc1ccc([C@H]2C[C@@H]2COc2cc(N(Cc3nnc(C)s3)C(=O)OCc3oc(=O)oc3C)nc(C)n2)nc1 [Compound 1, (5-Methyl-2-oxo-1,3-dioxol-4-yl)methyl ((5-methyl-1,3,4-thiadiazol-2-yl)methyl)(2-methyl-6-(((1S,2S)-2-(5-methylpyridin-2-yl)cyclopropyl)methoxy)pyrimidin-4-yl)carbamate]	2.3 (≈ 4.27 µM)	6.6	3.6	–
Cc1ccc([C@H]2C[C@@H]2COc2cc(N(Cc3nnc(C)s3)Sc3ccccc3)nc(C)n2)nc1 [Compound 2, N-((5-Methyl-1,3,4-thiadiazol-2-yl)methyl)-N-(2-methyl-6-(((1S,2S)-2-(5-methylpyridin-2-yl)cyclopropyl)methoxy)pyrimidin-4-yl)-S-phenylthiohydroxylamine]	–	4.8	17.4	BLQ
